In assay [1] the target is T1, human GR (glucocorticoid receptor) (Homo sapiens, UniProt P04150).
T1 sequence (P04150 1-777): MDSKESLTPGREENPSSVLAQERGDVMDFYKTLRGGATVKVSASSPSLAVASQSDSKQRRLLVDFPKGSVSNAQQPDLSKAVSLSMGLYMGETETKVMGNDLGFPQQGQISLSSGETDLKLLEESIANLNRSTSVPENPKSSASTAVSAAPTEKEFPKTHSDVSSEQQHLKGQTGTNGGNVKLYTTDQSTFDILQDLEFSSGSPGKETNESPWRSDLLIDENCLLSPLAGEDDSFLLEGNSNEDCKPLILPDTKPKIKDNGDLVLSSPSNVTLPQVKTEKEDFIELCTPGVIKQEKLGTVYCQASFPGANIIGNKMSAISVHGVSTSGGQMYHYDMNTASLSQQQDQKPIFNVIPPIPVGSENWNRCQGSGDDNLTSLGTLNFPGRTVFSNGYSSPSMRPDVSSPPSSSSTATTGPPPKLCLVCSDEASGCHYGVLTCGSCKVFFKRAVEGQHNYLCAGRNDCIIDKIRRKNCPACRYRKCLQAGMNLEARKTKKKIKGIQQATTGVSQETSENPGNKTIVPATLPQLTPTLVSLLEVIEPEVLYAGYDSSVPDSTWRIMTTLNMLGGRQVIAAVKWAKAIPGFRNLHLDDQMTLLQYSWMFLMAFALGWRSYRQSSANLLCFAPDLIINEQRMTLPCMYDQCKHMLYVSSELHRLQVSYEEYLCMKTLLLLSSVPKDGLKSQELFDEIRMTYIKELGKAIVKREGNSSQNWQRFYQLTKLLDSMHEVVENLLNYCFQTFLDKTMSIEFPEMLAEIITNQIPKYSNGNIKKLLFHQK
The assay can be described thus: GRE-luciferase reporter transactivation in transfected COS-1 cells. It counts as cell-based.

Assay [2] has as its target T1, human GR (glucocorticoid receptor). It counts as cell-based. The note with it: for IC50 (M) ± SEM: 20 nM [3H]-DEX, 3 h.

The record followed here is PMC9081821 (Steroids, 2022).

For the molecule `C#C[C@]1(O)CC[C@H]2[C@@H]3CCC4=CC(=O)CC[C@@H]4[C@H]3C(=C)C[C@@]21CC` [etonogestrel], in assay [1], a half-maximal response (EC50) required 0.0319 µM. Moreover, the “IC50 (M) ± SEM” value in assay [2] is 1.15 ± 5.2 × 10^-8 M.
On to `C#C[C@]1(O)CC[C@H]2[C@@H]3CCC4=CC(=O)CC[C@@H]4[C@H]3CC[C@@]21CC` [levonorgestrel], for which, in assay [2], the “IC50 (M) ± SEM” value is recorded as 1.35 ± 9.1 × 10^-7 M.
For the molecule `CC(=O)O[C@]1(C(C)=O)CC[C@H]2[C@@H]3C[C@H](C)C4=CC(=O)CC[C@]4(C)[C@H]3CC[C@@]21C` [medroxyprogesterone acetate], the EC50 (usually the midpoint of the concentration-response curve) in assay [1] worked out at 0.0417 µM. Besides, the IC50 (as a rule, the concentration needed to halve the response being measured) in assay [2] turned out to be 0.00558 µM.
For `C=C1C[C@H]2[C@@H]3CCC4=CC(=O)CC[C@@H]4[C@H]3CC[C@]2(C)[C@@]1(OC(C)=O)C(C)=O` [nestorone], in that order: 0.0185 µM and 0.0573 µM.
